Data taken from patent US6573297B2, “(2-substituted oxyphenyl)alkanamide derivative, hair growth promoter and external composition for skin using the same” (Shiseido Co., Ltd., priority 1999, dated 2003).

System: C3H/HeNCrj mice
Assay: Hair Regrowth Test
Type: in vivo
Details: 23 days of application; 0.1 ml of 0.1 w/v % ethanol solution on shaved back once a day; average of group (10 mice)
Description: By using C3H/HeNCrj mice, whose hair cycle was in resting stage, the experiment was performed according to the method of Ogawa et. al. (Normal and Abnormal Epidermal Differentiation, Edited by M. Seiji and I. A. Bernstein, Pages 159-170, 1982, Todai Shuppan). 10 mice were used in a group and the mice's hair within the area of 3×4 cm of the regions of back was shaved by a clipper and a shaver. 0.1 ml of ethanol (negative contrast) or ethanol solution of the tested compound (0.1 w/v %) was applied on the shaved portion once a day. For hair regrowth effect of the tested compound, the hair regrowth area of mice's region of back was measured and ratio of the hair regrowth area with respect to the shaved area was evaluated as hair regrowth area rate (%).

SMILES | Hair Regrowth Area Rate [%]
CCCCCCCCCCCCCCCCCCNC(=O)Oc1ccccc1CCC(=O)NCCCN(C)C [Compound 1, 2-[3-[[3-(Dimethylamino)propyl]amino]-3-oxopropyl]phenyl N-octadecylcarbamate] | 69
CCCCCCCCCCCCCCCCCCNC(=O)Oc1ccccc1CCC(=O)NCCCN(C)C.Cl [Compound 2, 2-[3-[[3-(Dimethylamino)propyl]amino]-3-oxopropyl]phenyl N-octadecylcarbamate hydrochloride] | 10

Same assay, conditions: 24 days of application; 0.1 ml of 0.1 w/v % ethanol solution on shaved back once a day; average of group (10 mice)

SMILES | Hair Regrowth Area Rate [%]
CCCCCCCCCCCCCCCCCCNC(=O)Oc1ccccc1CCC(=O)N1CCN(C)CC1 [Compound 3, 2-[3-(4-Methylpiperazino)-3-oxopropyl]phenyl N-octadecylcarbamate] | 100
CCCCCCCCCCCCCCCCCCNC(=O)Oc1ccccc1CCC(=O)N1CCN(C)CC1.Cl [Compound 4, 2-[3-(4-Methylpiperazino)-3-oxopropyl]phenyl N-octadecylcarbamate hydrochloride] | 100
CCCCCCCCCCCCCCCCCCNC(=O)Oc1ccccc1CCC(=O)NCCCN1CCOCC1 [Compound 5, 2-{3-[(3-Morpholinopropyl)amino]-3-oxopropyl}phenyl N-octadecylcarbamate] | 16
CCCCCCCCCCCCCCCCCCNC(=O)Oc1ccccc1CCC(=O)NCCCN1CCOCC1.Cl [Compound 6, 2-{3-[(3-Morpholinopropyl)amino]-3-oxopropyl}phenyl N-octadecylcarbamate hydrochloride] | 17
CCCCCCCCCCCCCCCCCCOc1ccccc1CCC(=O)NCCCN(C)C.Cl [Compound 8, N-[3-(Dimethylamino)propyl]-3-[2-(octadecyloxy)phenyl]propanamide hydrochloride] | 100
CCCCCCCCCCCCCCCCCCOc1ccccc1CCC(=O)NCCCN1CCOCC1.Cl [Compound 10, N-(3-Morpholinopropyl)-3-[2-(octadecyloxy)phenyl]propanamide hydrochloride] | 38
CCCCCCCCCCCCCCCCCCOc1ccccc1CCC(=O)N1CCN(C)CC1.Cl [Compound 12, 1-(4-Methylpiperazino)-3-[2-(octadecyloxy)phenyl]-1-propanone hydrochloride] | 38
